Laboratory results reported in patent US20100016232A1, “Treatment Of Inflammatory Diseases With Mammal Beta Defensins” (Novozymes A/S, priority 2008, published 2010).
Marks after values point to notes of the source that are not given here. Where no end group is shown, it is not given here.

Columns and labels:
IL-23, human PBMC = assay: IL-23 in supernatants of human PBMC, ELISA; assay type: cell-based
Protocol: Peripheral blood was drawn from healthy volunteers (with approval from the relevant ethical committee in Denmark). Heparinized blood was diluted 1/1 v/v with RPMI and were subjected to Ficoll density centrifugation within 2 h of drawing. Plasma was collected from the top from individual donors and was kept on ice until it was used at 2% in the culture medium (autologous culture medium). Isolated PBMC were resuspended in autologous culture medium and seeded in 96-well culture plates with 255.000 cells per well in a total of 200 μl. […] The concentrations used for stimulation were optimized on 3 different donors in initial experiments, for LPS two different concentrations were used to be sure to be on a cytokine level that is possible to modulate. In some experiments PBMC were treated with Dexamethason and Indomethacin alone and together with LPS or LTA as a control on downregulation of inflammatory cytokines. The supernatants were collected after incubation at 37° C. for 24 hours, and stored at −80° C. until cytokine measurement. Viability was measured by Alamar Blue (Biosource, DALL 1100) in all experiments and in some cases also by MTS (Promega) according to manufacturer's instruction and was in some experiments also judged by counting of the cells by a Nucleocounter. […]
Cell culture supernatants were collected and stored at −80° C. Amounts of IL-23 was measured by standard sandwich ELISA using commercially available antibodies and standards according to the manufacturer's protocols (eBioscience).

[1] = test system: collagen-induced arthritis (CIA) in the mouse; assay: Collagen-induced rheumatoid arthritis model, clinical arthritis score; assay type: in vivo; design: key: each paw scored 0-4 by ascending severity; total summed over paws
Protocol: All animals were subjected on Day 0 of the study (study commencement) to an intradermal injection into the tail of 0.1 ml Type II Collagen/CFA emulsion (200 μg collagen per mouse) under light Isoflurane anesthesia, using a plastic syringe. The location of injection was at an approximate caudal distance of about 1 cm from the base of the tail. A collagen challenge (200 μg/mouse) was presented to the animals by IP injection of collagen and PBS on Day 21.
Treatments were commenced on day 14 of the study and continued once daily throughout. All surviving mice were terminated on study day 42.
Mice were examined for signs of arthritogenic responses in peripheral joints on study day 0, 14, 21 and thereafter five times weekly until termination of the study. Arthritis reactions were reported for each paw according to a 0-4 scale in ascending order of severity as shown below:
In accordance with Home Office regulations mice with a total clinical score of equal to or greater than 12 were culled due to arthritis severity. The clinical score of these mice at termination was carried forward in the analysis for the remainder of the study in order that the data was not artificially skewed by the removal of high scoring mice.

## hBD2: human beta defensin 2, SEQ ID NO:2; produced recombinantly in E. coli (Example 1); hBD2 of Tables 16-18 was prepared by chemical synthesis (GIGDPVTCLKSGAICHPVFCPRRYKQIGTCGLPGTKCCKKP; ends and bridges not checked; cysteine pairing not given here; listed as Homo sapiens)
IL-23, human PBMC; Control (medium), treatment 1 μg/ml
  IL-23: 218 pg/mL
IL-23, human PBMC; Control (medium), treatment 10 μg/ml
  IL-23: 211 pg/mL
IL-23, human PBMC; Control (medium), treatment 100 μg/ml
  IL-23: 207 pg/mL
IL-23, human PBMC; LPS 0.6 ng/ml, treatment 1 μg/ml
  IL-23: 338 pg/mL
IL-23, human PBMC; LPS 0.6 ng/ml, treatment 10 μg/ml
  IL-23: 462 pg/mL
IL-23, human PBMC; LPS 0.6 ng/ml, treatment 100 μg/ml
  IL-23: 484 pg/mL
IL-23, human PBMC; LPS 20 ng/ml, treatment 1 μg/ml
  IL-23: 263 pg/mL
IL-23, human PBMC; LPS 20 ng/ml, treatment 10 μg/ml
  IL-23: 295 pg/mL
IL-23, human PBMC; LPS 20 ng/ml, treatment 100 μg/ml
  IL-23: 488 pg/mL
IL-23, human PBMC; LTA 5 μg/ml, treatment 1 μg/ml
  IL-23: 383 pg/mL
IL-23, human PBMC; LTA 5 μg/ml, treatment 10 μg/ml
  IL-23: 438 pg/mL
IL-23, human PBMC; LTA 5 μg/ml, treatment 100 μg/ml
  IL-23: 810 pg/mL
[1]; 0.1 mg/kg i.v. once daily from day 14 (Group E), study day 40
  Mean total arthritis score, peak: 9.0±0.77
[1]; 1 mg/kg i.v. once daily from day 14 (Group D), study day 41
  Mean total arthritis score, peak: 5.2±1.11
[1]; 10 mg/kg i.v. once daily from day 14 (Group C), study day 40
  Mean total arthritis score, peak: 5.0±1.04
[1]; Group C, 10 mg/kg IV once daily, Study Day 0
  Mean Arthritic Score: 0.0
[1]; Group C, 10 mg/kg IV once daily, Study Day 14
  Mean Arthritic Score: 1.7
[1]; Group C, 10 mg/kg IV once daily, Study Day 21
  Mean Arthritic Score: 3.1
[1]; Group C, 10 mg/kg IV once daily, Study Day 22
  Mean Arthritic Score: 4.3
[1]; Group C, 10 mg/kg IV once daily, Study Day 23
  Mean Arthritic Score: 3.3
[1]; Group C, 10 mg/kg IV once daily, Study Day 26
  Mean Arthritic Score: 4.1
[1]; Group C, 10 mg/kg IV once daily, Study Day 27
  Mean Arthritic Score: 4.1
[1]; Group C, 10 mg/kg IV once daily, Study Day 28
  Mean Arthritic Score: 4.1
[1]; Group C, 10 mg/kg IV once daily, Study Day 29
  Mean Arthritic Score: 4.4
[1]; Group C, 10 mg/kg IV once daily, Study Day 30
  Mean Arthritic Score: 4.9
[1]; Group C, 10 mg/kg IV once daily, Study Day 33
  Mean Arthritic Score: 4.8
[1]; Group C, 10 mg/kg IV once daily, Study Day 34
  Mean Arthritic Score: 4.9
[1]; Group C, 10 mg/kg IV once daily, Study Day 35
  Mean Arthritic Score: 4.9
[1]; Group C, 10 mg/kg IV once daily, Study Day 36
  Mean Arthritic Score: 4.8
[1]; Group C, 10 mg/kg IV once daily, Study Day 37
  Mean Arthritic Score: 4.7
[1]; Group C, 10 mg/kg IV once daily, Study Day 40
  Mean Arthritic Score: 5.0
[1]; Group C, 10 mg/kg IV once daily, Study Day 41
  Mean Arthritic Score: 4.8*
[1]; Group D, 1 mg/kg IV once daily, Study Day 0
  Mean Arthritic Score: 0.0
[1]; Group D, 1 mg/kg IV once daily, Study Day 14
  Mean Arthritic Score: 0.6
[1]; Group D, 1 mg/kg IV once daily, Study Day 21
  Mean Arthritic Score: 2.1
[1]; Group D, 1 mg/kg IV once daily, Study Day 22
  Mean Arthritic Score: 2.3
[1]; Group D, 1 mg/kg IV once daily, Study Day 23
  Mean Arthritic Score: 2.0
[1]; Group D, 1 mg/kg IV once daily, Study Day 26
  Mean Arthritic Score: 2.0
[1]; Group D, 1 mg/kg IV once daily, Study Day 27
  Mean Arthritic Score: 2.0
[1]; Group D, 1 mg/kg IV once daily, Study Day 28
  Mean Arthritic Score: 2.3
[1]; Group D, 1 mg/kg IV once daily, Study Day 29
  Mean Arthritic Score: 2.4
[1]; Group D, 1 mg/kg IV once daily, Study Day 30
  Mean Arthritic Score: 2.7
[1]; Group D, 1 mg/kg IV once daily, Study Day 33
  Mean Arthritic Score: 4.0
[1]; Group D, 1 mg/kg IV once daily, Study Day 34
  Mean Arthritic Score: 4.1
[1]; Group D, 1 mg/kg IV once daily, Study Day 35
  Mean Arthritic Score: 4.0
[1]; Group D, 1 mg/kg IV once daily, Study Day 36
  Mean Arthritic Score: 4.1
[1]; Group D, 1 mg/kg IV once daily, Study Day 37
  Mean Arthritic Score: 4.2
[1]; Group D, 1 mg/kg IV once daily, Study Day 40
  Mean Arthritic Score: 4.7*
[1]; Group D, 1 mg/kg IV once daily, Study Day 41
  Mean Arthritic Score: 5.2
[1]; Group E, 0.1 mg/kg IV once daily, Study Day 0
  Mean Arthritic Score: 0.0
[1]; Group E, 0.1 mg/kg IV once daily, Study Day 14
  Mean Arthritic Score: 1.2
[1]; Group E, 0.1 mg/kg IV once daily, Study Day 21
  Mean Arthritic Score: 3.2
[1]; Group E, 0.1 mg/kg IV once daily, Study Day 22
  Mean Arthritic Score: 3.6
[1]; Group E, 0.1 mg/kg IV once daily, Study Day 23
  Mean Arthritic Score: 3.2
[1]; Group E, 0.1 mg/kg IV once daily, Study Day 26
  Mean Arthritic Score: 3.7
[1]; Group E, 0.1 mg/kg IV once daily, Study Day 27
  Mean Arthritic Score: 4.1
[1]; Group E, 0.1 mg/kg IV once daily, Study Day 28
  Mean Arthritic Score: 4.4
[1]; Group E, 0.1 mg/kg IV once daily, Study Day 29
  Mean Arthritic Score: 5.0
[1]; Group E, 0.1 mg/kg IV once daily, Study Day 30
  Mean Arthritic Score: 5.9
[1]; Group E, 0.1 mg/kg IV once daily, Study Day 33
  Mean Arthritic Score: 7.3
[1]; Group E, 0.1 mg/kg IV once daily, Study Day 34
  Mean Arthritic Score: 7.8
[1]; Group E, 0.1 mg/kg IV once daily, Study Day 35
  Mean Arthritic Score: 8.0
[1]; Group E, 0.1 mg/kg IV once daily, Study Day 36
  Mean Arthritic Score: 8.2
[1]; Group E, 0.1 mg/kg IV once daily, Study Day 37
  Mean Arthritic Score: 8.7
[1]; Group E, 0.1 mg/kg IV once daily, Study Day 40
  Mean Arthritic Score: 9.0
[1]; Group E, 0.1 mg/kg IV once daily, Study Day 41
  Mean Arthritic Score: 8.8
